The text below walks through data of patent publication US20100144872A1, “New Methylenebisphenyl Compounds Useful in the Treatment of Inflammation” (Biolipox AB, priority 2007, published 2010).

Usually IC50 stands for the midpoint of a concentration-inhibition curve.

In the experiment the target is T1, Recombinant human LTC4 synthase (Homo sapiens, UniProt Q16873).
T1 construct: made in house; host or cells: Pichia pastoris ('Piccia pastoralis' [sic])
T1 sequence (Q16873 1-150): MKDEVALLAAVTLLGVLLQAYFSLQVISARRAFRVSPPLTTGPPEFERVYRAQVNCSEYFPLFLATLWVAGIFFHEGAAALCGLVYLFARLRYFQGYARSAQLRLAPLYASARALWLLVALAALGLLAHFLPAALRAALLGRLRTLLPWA
Description: LTC4 synthase assay (conversion of LTA4 methyl ester to LTC4 methyl ester, HPLC). It is filed as biochemical. Particulars: biological test described above; PBS pH 7.4 with 5 mM GSH, substrate LTA4 methyl ester. As to the method: In the assay LTC4 synthase catalyses the reaction where the substrate LTA4 methyl ester is converted to LTC4 methyl ester. Recombinant human LTC4 synthase is expressed in Piccia pastoralis and the purified enzyme is dissolved in 25 mM Tris-buffer pH 7.8 and stored at −20° C. The assay is performed in phosphate buffered saline (PBS) pH 7.4, supplemented with 5 mM glutathione (GSH). The reaction is terminated by addition of acetonitrile/MeOH/acetic acid (50/50/1). The assay is performed at it in 96-well plates. Analysis of the formed LTC4 methyl ester is performed with reversed phase HPLC (Waters 2795 utilizing an Onyx Monolithic C18 column). The mobile phase consists of acetonitrile/MeOH/H2O (32.5/30/37.5) with 1% acetic acid pH adjusted with NH3 to pH 5.6, and absorbance measured at 280 nm with a Waters 2487 UV-detector.
The following is added chronologically to each well: • 1. 50 μl assay buffer, PBS with 5 mM GSH. • 2. 0.5 μl inhibitor in DMSO. • 3. 2 μl LTC4 synthase in PBS. The total protein concentration in this solution is 0.025 mg/ml. Incubation of the plate at room temperature for 10 minutes. • 4. 0.5 μl LTA4 methyl ester. Incubation of the plate at it for 1 min. • 5. 50 μl stop solution. 80 μl of the incubation mixture is analysed with HPLC.

For the compound `Nc1ccc(Cc2ccc(Nc3ccc(F)c(Cl)c3)c(C(=O)O)c2)cc1C(=O)O` [Example 6, 2-amino-5-(3-carboxy-4-(3-chloro-4-fluorophenylamino)benzyl)benzoic acid], the IC50 turned out to be 5.7 µM. Consider `Nc1ccc(Cc2ccc(Nc3ccc(Br)cc3F)c(C(=O)O)c2)cc1C(=O)O` [Example 8, 2-amino-5-(4-(4-bromo-2-fluorophenyl-amino)-3-carboxybenzyl)benzoic acid], for which the 50% inhibitory concentration (IC50) worked out at 0.74 µM. On to `O=C(O)c1ccccc1Nc1ccc(Cc2ccc(Nc3ccccc3C(=O)O)c(C(=O)O)c2)cc1C(=O)O` [Example 9, 5,5′-methylenebis(2-(2-carboxyphenyl-amino)benzoic acid)], for which the IC50 worked out at 3.4 µM. Under `Nc1ccc(Cc2ccc(Nc3ccc(F)cc3)c(C(=O)O)c2)cc1C(=O)O` [Example 12, 2-amino-5-(3-carboxy-4-(4-fluoro-phenylamino)benzyl)benzoic acid] stands 2.8 µM; under `CC(C)Oc1ccc(Nc2ccc(Cc3ccc(N)c(C(=O)O)c3)cc2C(=O)O)cc1` [Example 27, 2-amino-5-(3-carboxy-4-(4-isopropoxy-phenylamino)benzyl)benzoic acid], 6.41 µM; under `COc1cccc(NC(=O)Nc2ccc(Cc3ccc(NC(=O)Nc4cccc(OC)c4)c(C(=O)O)c3)cc2C(=O)O)c1` [Example 55, 5,5′-methylenebis-(2-(3-(3-methoxyphenyl)-ureido)benzoic acid)], 1.8 µM. `O=C(Nc1ccccc1F)Nc1ccc(Cc2ccc(NC(=O)Nc3ccccc3F)c(C(=O)O)c2)cc1C(=O)O` [Example 57, 5,5′-methylenebis-(2-(3-(2-fluorophenyl)-ureido)benzoic acid)]: the half-inhibitory concentration (IC50) amounted to 4 µM. For `O=C(Nc1ccc(Cc2ccc(NC(=O)Nc3c(Cl)cccc3Cl)c(C(=O)O)c2)cc1C(=O)O)Nc1c(Cl)cccc1Cl` [Example 62, 5,5′-methylenebis-(2-(3-(2,6-dichlorophenyl)-ureido)benzoic acid)], the IC50 turned out to be 5.8 µM.

Take `CC(=O)Nc1ccc(S(=O)(=O)Nc2ccc(Cc3ccc(NS(=O)(=O)c4ccc(NC(C)=O)c(Cl)c4)c(C(=O)O)c3)cc2C(=O)O)cc1Cl` [Example 67, 5,5′-methylenebis(2-(4-acetamido-3-chlorophenylsulfonamido)benzoic acid)]: the half-inhibitory concentration (IC50) is 2.8 µM. Under `O=C(O)c1cc(Cc2ccc(NS(=O)(=O)c3ccccc3C(F)(F)F)c(C(=O)O)c2)ccc1NS(=O)(=O)c1ccccc1C(F)(F)F` [Example 69, 5,5′-methylenebis(2-(2-(trifluoromethyl)phenylsulfonamido)benzoic acid)] stands 1.3 µM; under `O=C(O)c1cc(Cc2ccc(NS(=O)(=O)c3cc(C(F)(F)F)cc(C(F)(F)F)c3)c(C(=O)O)c2)ccc1NS(=O)(=O)c1cc(C(F)(F)F)cc(C(F)(F)F)c1` [Example 74, 5,5′-methylenebis(2-(3,5-bis(trifluoromethyl)-phenylsulfonamido)benzoic acid)], 0.7 µM. Next, `Cc1ccc(CNc2ccc(Cc3ccc(NCc4ccc(C)cc4)c(C(=O)O)c3)cc2C(=O)O)cc1` [Example 89, 5-(3-Carboxy-4-(4-methyl-benzylamino)-benzyl)-2-(4-methyl-benzylamino)-benzoic acid]: 3.4 µM; `O=C(O)c1cc(Cc2ccc(NCc3cccc(OCc4ccccc4)c3)c(C(=O)O)c2)ccc1NCc1cccc(OCc2ccccc2)c1` [Example 93]: 2.3 µM.
